The values below come from article PMC8868193 (Antibiotics, 2022).

The subject of series [1] is Candida albicans SC5314. Put plainly: microbe, parasite or virus in culture. To be noted: for MIC: Candida albicans; for Anti-Fungal MICs: SC5314, pH 7. How it is done:
Candida albicans SC5314 was used as a test strain for the antifungal and synergistic antifungal bioassay. Checkerboard assays were carried out as described previously. Overnight cultures were chosen to prepare the strain suspension with RPMI 1640 medium. RPMI 1640 was purchased from Invitrogen, and was used according to the manufacturer’s protocol, by supplementing 2% glucose, 3.45% MOS, then adjusting the pH to 7.0. Compounds were dissolved in DMSO. Final concentrations ranged from 0.002 to 2 μg/mL for rapamycin and 0.39 to 25 μg/mL for peptide-like compounds, respectively. Rapamycin was 2-fold diluted from 1 to 11 (column), while selected compounds were 2-fold diluted from A to G (row) of the 96-well microtiter plate. The fractional inhibitory concentration index (FICI) is defined as the sum of the MIC of each drug when used in combination divided by the MIC of the drug used alone. Synergism and antagonism were defined by FICI of ≤0.5 and >4, respectively.

For series [2], the target named is T1, HDAC8 (Homo sapiens, UniProt Q9BY41).
T1 construct: purchased Abnova KA4444
T1 sequence (Q9BY41 1-377): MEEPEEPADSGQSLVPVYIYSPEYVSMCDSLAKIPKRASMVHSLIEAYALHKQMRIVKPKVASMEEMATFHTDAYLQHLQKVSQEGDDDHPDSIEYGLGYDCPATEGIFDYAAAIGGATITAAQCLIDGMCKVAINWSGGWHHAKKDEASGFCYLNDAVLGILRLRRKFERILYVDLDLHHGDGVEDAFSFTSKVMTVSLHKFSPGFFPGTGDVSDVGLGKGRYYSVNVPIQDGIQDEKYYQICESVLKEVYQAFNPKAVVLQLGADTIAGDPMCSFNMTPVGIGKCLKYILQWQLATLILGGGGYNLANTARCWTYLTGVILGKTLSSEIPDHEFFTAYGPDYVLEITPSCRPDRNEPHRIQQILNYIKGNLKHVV
Put plainly: HDAC activity assay (HDAC8 Deacetylase Fluorometric (Human) Assay Kit). As to conditions: triplicate. The class given is biochemical. The protocol:
The HDAC activity of the compounds was measured using an HDAC8 Deacetylase Fluorometric (Human) Assay Kit (Cat KA4444, Abnova, Taipei, Taiwan) according to the manufacturer’s instructions. Fluorescence signal was detected with excitation at 360 nm and emission at 460 nm using a fluorescence microplate reader (Perkin-Elmer, Waltham, MA, USA). Experiments were performed in triplicate and data were analyzed using GraphPad Prism (version 6.0), Kd values were calculated by nonlinear curve fitting using a 1-site binding (hyperbola) model (Y = Bmax*X/(Kd + X).

Details of series [3]: method as in 3 sources, ref [9] = [9]; PMID 16839576; doi:10.1016/j.phytochem.2006.05.033; 9. Walton J.D. HC-toxin Phytochemistry 2006 67 1406 1413 10.1016/j.phytochem.2006.05.033 16839576 ||| ref [16] = [16]; PMID 35747077; doi:10.1039/D0RA09388B; 16. Lin X. Chai L. Zhu H.R. Zhou Y. Lin. H.W. Applying molecular networking for targeted isolation of depsipeptides RSC Adv. 2021 11 2774 10.1039/D0RA09388B PMC9134009 35747077 ||| ref [17] = [17]; PMID 32528927; doi:10.3389/fchem.2020.00397; 17. Sala G.D. Mangoni A. Costantino V. Teta R. Identification of the biosynthetic gene cluster of thermoactinoamides and discovery of new congeners by integrated genome mining and MS-Based molecular n. As to conditions: literature, cited from earlier work.

The conditions of series [4]: literature; ref [10]; cited from earlier work. The text has this: Fungal natural products play a prominent role in the development of pharmaceutical agents.
Where [5] appears, read: SC5314, pH 7, read-out: Anti-Fungal MICs.

Read-outs that look alike come from different tables or passages of the source. Non-standard residues stand in square brackets, D forms with d. Residues, ends and D or L forms follow the SMILES beside them. NMeA = CN[C@@H](C)C(=O)O

Regarding `C[C@@H]1[C@H](O)[C@@H](C)/C=C/C=C/C=C/C=C/C=C/C=C/C=C/[C@H](O[C@@H]2O[C@H](C)[C@@H](O)[C@H](N)[C@@H]2O)C[C@@H]2O[C@](O)(C[C@@H](O)C[C@@H](O)[C@H](O)CC[C@@H](O)C[C@@H](O)CC(=O)O[C@H]1C)C[C@H](O)[C@H]2C(=O)O` [Amphotericin B, reference compound], the MIC in series [1] (setting [5]) is 0.5 µM; in series [1] (SC5314, pH 7, read-out: Synergistic Anti-Fungal MICs), 0.125 µM.
Regarding `CC[C@H](C)[C@@H]1NC(=O)[C@H](C(C)C)NC(=O)[C@@H](Cc2ccc(OC)cc2)NC(=O)[C@H](C)N(C)C1=O` [Compound 1, cyclo-[L-N-Me-Ala-L-Ile-L-Val-D-O-Me-Tyr]] (cyclo(I[NMeA][dY](Me)V)), in series [1], the “Anti-Fungal MICs” value is over 100 µM. Further, the IC50 in series [2] (text: HDAC at the cell level, method: HDAC8 fluorometric kit, ex 360 nm / em 460 nm, read-out: HDAC inhibition IC50) was about 70 µM.
For the compound `CC[C@H](C)[C@@H]1NC(=O)[C@H]([C@@H](C)O)NC(=O)[C@@H](Cc2ccc(OC)cc2)NC(=O)[C@H](C)N(C)C1=O` [Compound 2, cyclo-[L-N-Me-Ala-L-Ile-L-Thr-D-O-Me-Tyr]] (cyclo([NMeA][dY](Me)TI)), the “Anti-Fungal MICs” value in series [1] is over 100 µM. The “antifungal activity alone (in words)” value in series [1] (compound alone, C. albicans) is listed as “no antifungal effects alone”. Moreover, in series [1] (with 0.008 μM rapamycin, C. albicans SC5314, checkerboard, RPMI 1640, pH 7.0, start concentration 25 μM, 90% growth inhibition), the “Synergistic Anti-Fungal MICs” value worked out at 6.25 µM. For the same compound, the “concentration of compound required with rapamycin for achieving 90% growth inhibition (checkerboard MIC)” value in series [1] (with 0.008 μM rapamycin, Candida albicans SC5314) was determined as 6.25 µM. Further, the “HDAC inhibitory activity (in words)” value in series [2] (HDAC8 fluorometric kit) was “weak HDAC (histone deacetylase) inhibitory activity”.
As to `CO[C@H]1C[C@@H]2CC[C@@H](C)[C@@](O)(O2)C(=O)C(=O)N2CCCC[C@H]2C(=O)O[C@H]([C@H](C)C[C@@H]2CC[C@@H](O)[C@H](OC)C2)CC(=O)[C@H](C)/C=C(\C)[C@@H](O)[C@@H](OC)C(=O)[C@H](C)C[C@H](C)/C=C/C=C/C=C/1C` [Rapamycin, reference compound], in series [1] (setting [5]), the MIC turned out to be 0.5 µM. For the same compound, the “concentration of rapamycin required in combination for achieving 90% growth inhibition (checkerboard MIC)” value in series [1] (together with 6.25 μM of compounds 1 and 2, Candida albicans SC5314) worked out at 8 nM.
HC toxin: in series [3] (ref [9]), the “cytotoxic / antimitogenic activity (in words)” value is “cytotoxic and antimitogenic activities”.
Take apicidin: the “antiprotozoan activity (in words)” value in series [4] is reported as “antiprotozoan activities”.
With neoantimycin L, the “cytotoxicity (in words)” value in series [3] (ref [16]) is reported as “excellent cytotoxicity”.
Take thermoactinoamide A: the “antiproliferative activity (in words)” value in series [3] (ref [17]) is “moderate antiproliferative activity”.
